The values that follow come from PubChem BioAssay AID330 (DTP/NCI, 2004).

The subject of the assay is P388 leukemia ip, CD2F1 mice, survival T/C. Kind of assay: NCI In Vivo Anticancer Drug Screen. Data for tumor model P388 Leukemia (intraperitoneal) in CD2F1 (CDF1) mice. Particulars: endpoint: median survival time, higher = longer survival. The essentials: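 Mice carrying the transplanted tumor received test compound or vehicle. Survival was recorded in each group, and the value is the treated-group measurement divided by that of the vehicle-treated control group.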

The mark [1] stands for this setting: dose: 50.0 mg/kg/injection, schedule: Q01DX009 (ip), vehicle: Klucel (hydroxypropylcellulose) (HPC).
[2] abbreviates: dose: 100.0 mg/kg/injection, schedule: Q01DX009 (ip), vehicle: Klucel (hydroxypropylcellulose) (HPC).
[3] abbreviates: dose: 12.5 mg/kg/injection, schedule: Q01DX009 (ip), vehicle: saline with Tween-80.
The mark [4] stands for this setting: dose: 25.0 mg/kg/injection, schedule: Q01DX009 (ip), vehicle: saline with Tween-80.
Setting [5] is: dose: 50.0 mg/kg/injection, schedule: Q01DX005 (ip), vehicle: saline with Tween-80.
Where [6] appears, read: dose: 100.0 mg/kg/injection, schedule: Q01DX005 (ip), vehicle: saline with Tween-80.
The mark [7] stands for this setting: dose: 200.0 mg/kg/injection, schedule: Q01DX005 (ip), vehicle: saline with Tween-80.

Values joined by “and” are separate entries in the source; they are usually repeats but may differ in a detail not shown here. Equal entries are not always repeated. Toxic doses and inconclusive results are not listed.

Consider `C=CCN1CCc2c([nH]c3cc(OC)ccc23)C1C` (stereo not given), for which the T/C is, setting by setting: (dose: 9.0 mg/kg/injection, schedule: Q01DX005 (ip), vehicle: Klucel (hydroxypropylcellulose) (HPC)) 95 % of control; (dose: 18.0 mg/kg/injection, schedule: Q01DX005 (ip), vehicle: Klucel (hydroxypropylcellulose) (HPC)) 94 % of control; (dose: 36.0 mg/kg/injection, schedule: Q01DX005 (ip), vehicle: Klucel (hydroxypropylcellulose) (HPC)) 89 % of control; (dose: 72.0 mg/kg/injection, schedule: Q01DX005 (ip), vehicle: Klucel (hydroxypropylcellulose) (HPC)) 94 % of control; (dose: 144.0 mg/kg/injection, schedule: Q01DX005 (ip), vehicle: Klucel (hydroxypropylcellulose) (HPC)) 94 % of control.
In the case of `CSCNc1ncnc2c1ncn2C1OC(CO)C(O)C1O` (stereo not given), the T/C (dose: 100.0 mg/kg/injection, schedule: Q04DX002 (ip), vehicle: saline with Tween-80) was 120 % of control.
Consider `CC(=O)OC1CCC2C3C=CC4=C/C(=N/NC(N)=S)CCC4(C)C3CCC12C` (stereo not given), for which the T/C runs as follows: (dose: 100.0 mg/kg/injection, schedule: Q01DX001 (ip), vehicle: saline) 100 % of control; (dose: 200.0 mg/kg/injection, schedule: Q01DX001 (ip), vehicle: saline) 98 % of control; (dose: 400.0 mg/kg/injection, schedule: Q01DX001 (ip), vehicle: saline) 99 % of control.
For `CN(C)CCC=C1c2ccccc2CCc2ccccc21`, the T/C (dose: 12.5 mg/kg/injection, schedule: Q01DX005 (ip), vehicle: saline) was 101 % of control; the T/C (dose: 25.0 mg/kg/injection, schedule: Q01DX005 (ip), vehicle: saline) was 103 % of control; the T/C (dose: 50.0 mg/kg/injection, schedule: Q01DX005 (ip), vehicle: saline) is 109 % of control and 116 % of control.
In the case of `CC(=O)OC1OC(C[Se][As](C)C)C(OC(C)=O)C(OC(C)=O)C1OC(C)=O` (stereo not given), the T/C is 107 % of control under setting [1]; 120 % of control under setting [2]; 114 % of control (dose: 200.0 mg/kg/injection, schedule: Q01DX009 (ip), vehicle: Klucel (hydroxypropylcellulose) (HPC)).
Take `FC(F)(F)C1(C(F)(F)F)OS2(OC(C(F)(F)F)(C(F)(F)F)c3ccccc32)c2ccccc21`: the T/C is 91 % of control (dose: 100.0 mg/kg/injection, schedule: Q04DX003 (ip), vehicle: Klucel (hydroxypropylcellulose) (HPC)); 91 % of control (dose: 200.0 mg/kg/injection, schedule: Q04DX003 (ip), vehicle: Klucel (hydroxypropylcellulose) (HPC)); 92 % of control (dose: 400.0 mg/kg/injection, schedule: Q04DX003 (ip), vehicle: Klucel (hydroxypropylcellulose) (HPC)).
For the compound `CC(=O)c1ccc2c(=O)c(C(=O)O)c[nH]c2c1`, the T/C is 87 % of control under setting [3]; 91 % of control under setting [4]; 108 % of control (dose: 50.0 mg/kg/injection, schedule: Q01DX009 (ip), vehicle: saline); 98 % of control (dose: 100.0 mg/kg/injection, schedule: Q01DX009 (ip), vehicle: saline); 104 % of control (dose: 200.0 mg/kg/injection, schedule: Q01DX009 (ip), vehicle: saline).
Regarding `COc1cc(C=Nc2cccc(Br)c2)ccc1N(CCCl)CCCl`, the T/C (dose: 3.3 mg/kg/injection, schedule: Q01DX009 (ip), vehicle: saline with Tween-80) is 154 % of control; the T/C (dose: 5.0 mg/kg/injection, schedule: Q01DX009 (ip), vehicle: saline with Tween-80) was 200 % of control; the T/C (dose: 5.56 mg/kg/injection, schedule: Q01DX009 (ip), vehicle: saline with Tween-80) was 209 % of control; the T/C (dose: 8.33 mg/kg/injection, schedule: Q01DX009 (ip), vehicle: saline with Tween-80) is 186 % of control; the T/C (dose: 11.0 mg/kg/injection, schedule: Q04DX003 (ip), vehicle: other) is 165 % of control; the T/C under setting [3] was 204 % of control and 227 % of control. Further, the T/C is 184 % of control (dose: 16.5 mg/kg/injection, schedule: Q04DX003 (ip), vehicle: other); 186 % of control (dose: 18.7 mg/kg/injection, schedule: Q01DX009 (ip), vehicle: saline with Tween-80); 166 % of control under setting [4]; 230 % of control (dose: 25.0 mg/kg/injection, schedule: Q04DX003 (ip), vehicle: other); 107 % of control (dose: 37.5 mg/kg/injection, schedule: Q04DX003 (ip), vehicle: other).
For `Nc1nc2c(c(=O)[nH]1)N(C(=O)CCl)C(CNc1ccc(C(=O)NC(CCC(=O)O)C(=O)O)cc1)CN2` (stereo not given), the T/C is 99 % of control (dose: 50.0 mg/kg/injection, schedule: Q01DX009 (ip), vehicle: water); 103 % of control (dose: 100.0 mg/kg/injection, schedule: Q01DX009 (ip), vehicle: water); 101 % of control (dose: 200.0 mg/kg/injection, schedule: Q01DX009 (ip), vehicle: water).
Consider `O=C1CC(O)C(Cc2ccccc2)N1` (stereo not given), for which the T/C under setting [5] is 97 % of control, the T/C under setting [6] was 98 % of control and the T/C under setting [7] is 97 % of control.
`O=C1C=CCCCC1`: the T/C is 102 % of control (dose: 12.5 mg/kg/injection, schedule: Q01DX009 (ip), vehicle: saline + Tween-80 + alcohol); 98 % of control (dose: 25.0 mg/kg/injection, schedule: Q01DX009 (ip), vehicle: saline + Tween-80 + alcohol); 109 % of control (dose: 44.0 mg/kg/injection, schedule: Q01DX009 (ip), vehicle: saline with Tween-80); 100 % of control (dose: 50.0 mg/kg/injection, schedule: Q01DX009 (ip), vehicle: saline + Tween-80 + alcohol); 109 % of control (dose: 66.0 mg/kg/injection, schedule: Q01DX009 (ip), vehicle: saline with Tween-80).
In the case of `Cc1ccc2cccc(OC(=O)Nc3cc(Cl)c(Cl)cc3Cl)c2n1`, the T/C was 100 % of control (dose: 15.0 mg/kg/injection, schedule: Q01DX005 (ip), vehicle: saline with Tween-80); 93 % of control (dose: 30.0 mg/kg/injection, schedule: Q01DX005 (ip), vehicle: saline with Tween-80); 93 % of control (dose: 60.0 mg/kg/injection, schedule: Q01DX005 (ip), vehicle: saline with Tween-80); 94 % of control (dose: 240.0 mg/kg/injection, schedule: Q01DX005 (ip), vehicle: saline with Tween-80).
On to `CC1C2COCC2CC2OC21` (stereo not given), for which the T/C was 109 % of control (dose: 6.25 mg/kg/injection, schedule: Q01DX001 (ip), vehicle: saline with Tween-80); 100 % of control (dose: 12.5 mg/kg/injection, schedule: Q01DX001 (ip), vehicle: saline with Tween-80); 104 % of control (dose: 25.0 mg/kg/injection, schedule: Q01DX001 (ip), vehicle: saline with Tween-80).
Take `C/C(=N\N=P(c1ccccc1)(c1ccccc1)c1ccccc1)C(C)(C)C`: the T/C is, setting by setting: (dose: 6.25 mg/kg/injection, schedule: Q01DX009 (ip), vehicle: Klucel (hydroxypropylcellulose) (HPC)) 100 % of control; (dose: 12.5 mg/kg/injection, schedule: Q01DX009 (ip), vehicle: Klucel (hydroxypropylcellulose) (HPC)) 95 % of control; (dose: 25.0 mg/kg/injection, schedule: Q01DX009 (ip), vehicle: Klucel (hydroxypropylcellulose) (HPC)) 94 % of control.
In the case of `O=S(=O)(c1ccccc1)N1CCN(S(=O)(=O)c2ccccc2)COC1`, the T/C reads like this: under setting [5], 103 % of control; under setting [6], 101 % of control; under setting [7], 102 % of control.
On to `Nc1cc(S(=O)(=O)F)ccc1Cl`, for which the T/C (dose: 100.0 mg/kg/injection, schedule: Q04DX003 (ip), vehicle: saline with Tween-80) is 100 % of control and the T/C (dose: 200.0 mg/kg/injection, schedule: Q04DX003 (ip), vehicle: saline with Tween-80) is 106 % of control.
As to `CCC1(c2ccccc2)OCC(C2CCCCN2)O1` (stereo not given), the T/C under setting [1] is 95 % of control and the T/C under setting [2] is 95 % of control.
As for `Cc1ccc(CNc2cc(C)ccn2)cc1`, the T/C is, setting by setting: (dose: 50.0 mg/kg/injection, schedule: Q01DX009 (ip), vehicle: other) 109 % of control; (dose: 100.0 mg/kg/injection, schedule: Q01DX009 (ip), vehicle: other) 109 % of control.
For the compound `CN(C)c1ccc(Sc2ccc3nc(N)nc(N)c3c2)cc1`, the T/C reads like this: (dose: 50.0 mg/kg/injection, schedule: Q01DX009 (ip), vehicle: saline with Tween-80) 95 % of control; (dose: 200.0 mg/kg/injection, schedule: Q01DX009 (ip), vehicle: saline with Tween-80) 174 % of control; (dose: 400.0 mg/kg/injection, schedule: Q01DX009 (ip), vehicle: saline with Tween-80) 117 % of control.
As for `OC(c1ccccc1)C1(c2ccccc2)CCN(Cc2ccccc2)CC1` (stereo not given), the T/C was 100 % of control under setting [5], 100 % of control under setting [6] and 96 % of control under setting [7].
